From PMC4405350, “From Broad-Spectrum Biocides to Quorum Sensing Disruptors and Mussel Repellents: Antifouling Profile of Alkyl Triphenylphosphonium Salts” (PLoS ONE, 2015) come the findings set out here.

What all share (format): cell-based
Experiment [1] relates to Alternaria sp. In words: Marine-derived fungi growth inhibition (OD405). As to conditions: Alternaria, 120 h, read-out: IC50 Alternaria sp. The method, then: (§1) All the biological assays were run by triplicate. […] For the active products, serial dilutions were performed to calculate the half-maximal inhibitory concentrations (IC50) or the minimal inhibitory concentrations (MIC). Unless otherwise stated, the test concentrations were 100, 50, 25, 10, 5, 2.5, 1, 0.5 and 0.1 μM. Dose-response curves were adjusted with GraphPad Prism 5 software using a four-parameter non-linear regression model.
(§2) Three strains of marine-derived fungi were kindly provided by Dr. Á. Trigos (University of Veracruz, Mexico). The strains were isolated from reef organisms collected from the Veracruz Reef System and identified as Aspergillus sp., Fusarium sp. and Alternaria sp..
(§3) Fungal strains were cultured in Potato-Dextrose Agar (PDA) supplemented with filtered seawater (FSW) (50% v/v) at 26 °C for 5 days prior to experiments. […] Briefly, fungal inocula were prepared by addition of 5 ml of sterile saline solution to the cultures. Gently swabbing released conidia. […] The plates were incubated for 5 days at 26 °C. The calculation of the half-maximal inhibitory concentrations (IC50) was performed using OD405 as endpoint.

In experiment [2] the test system is Aspergillus sp. In words: Marine-derived fungi growth inhibition (OD405). Particulars: Aspergillus, 120 h, read-out: IC50 Aspergillus sp. The method, then:
as §1, §2, §3

The test system of experiment [3] is Amphora sp. In words: Benthic diatom growth inhibition (chlorophyll-a). As to conditions: 120 h, read-out: IC50 Amphora sp. As to the method:
as §1
(§4) Five strains of benthic diatoms, Nitszchia sp. […] The Nitzschia and Navicula strains were purchased from the Spanish Bank of Algae (Marine Biotechnology Center, University of Las Palmas de Gran Canaria). The other three strains were kindly provided by Dr. G. Courtois (University of Las Palmas de Gran Canaria). Diatoms were cultured at 19±1 °C in Erlenmeyer flaks (250 ml) containing 150 ml of Guillard’s F/2 medium, and subjected to a photoperiod of 18:6. Tests were run in 48-well plates. Inocula were prepared by adjusting diatom concentration to 2–4 × 10^6 cells ml^-1 using a Neubauer chamber. Test products were dissolved in F/2 medium (500 μl) to which diatom inocula (500 μl) were added. Thus, the final assay volume was 1 ml and the starting cell densities were ca. 1–2 x 10^6 diatoms ml^-1. Plates were incubated under the abovementioned conditions for 5 days and then chlorophyll-a (Chla) was quantified.
(§5) In order to extract Chla, the content of each well was transferred to a microcentrifuge tube and centrifuged at 10,000 rpm for 10 min. The supernatants were discarded and 200 μl of DMSO were added to the pellets. The tubes were incubated at 65 °C for 2 h in total darkness and vortexed every 30 min. Then, the content of each tube was transferred to a 96-well plate and the amount of Chla was determined spectrophotometrically. Path length correction factor for the DMSO extracts was determined.

Experiment [4] concerns Cylindrotheca sp. In words: Benthic diatom growth inhibition (chlorophyll-a). Particulars: 120 h, read-out: IC50 Cylindrotheca sp. The method, then: as §1, §4, §5
The test system of experiment [5] is Navicula cf. salinicola BEA 0055. In words: Benthic diatom growth inhibition (chlorophyll-a). As to conditions: 120 h, read-out: IC50 Navicula cf. salinicola. As to the method: as §1, §4, §5
Experiment [6] concerns Nitzschia sp. In words: Benthic diatom growth inhibition (chlorophyll-a). Particulars: 120 h, read-out: IC50 Nitzschia sp. As to the method: as §1, §4, §5
The subject of experiment [7] is Phaeodactylum tricornutum. In words: Benthic diatom growth inhibition (chlorophyll-a). As to conditions: Phaeodactylum tricornutum, 120 h, read-out: IC50 P. tricornutum. The method, then:
as §1, §4, §5

Experiment [8] has as its system Gayralia oxysperma spores. In words: Macroalgal spore germination inhibition. As to conditions: 6 days, 19±1 °C. The method, then: as §1
To evaluate the effect of the phosphonium salts on the germination of macroalgal spores, Gayralia oxysperma (Kützing) K.L.Vinogradova was selected as model organism. G. oxysperma (Ulotrichales, Chlorophyta) is a cosmopolitan member of the Ulvophyceae. Unlike Ulva species, which produce biflagellate male and female gametes, as well as quadriflagellate spores, G. oxysperma only produces biflagellate spores. This is an advantage as bioassays can be conducted straightforwardly without the need to distinguish between gamete-producing and zoospore-producing plants. […] Fresh fertile fragments were selected and placed in Petri dishes. Spores were then released in Von Stosch Solution (VSS) by the osmotic method. Bioassays were conducted in flat-bottom 96-well plates as described by Chambers and co-workers, with slight modifications. Each well was filled with 50 μl of the appropriate dilution of the products in VSS to which 50 μl of spore inoculum (ca. 2 x 10^5 spores ml^-1) were added. Plates were incubated at 19±1 °C for 6 days. After the incubation time, the bottom of each well was examined for the presence of germinated spores with an inverted microscope. A spore was considered as germinated when the germ tube was visible. The MIC was recorded as the lowest concentration inhibiting spore germination.

For experiment [9], the system named is C. violaceum CVO26. In words: C. violaceum CVO26 growth inhibition (OD625). Particulars: Chromobacterium violaceum, CVO26, 18 h, read-out: IC50 (Growth inhibition). As to the method:
The reporter strain C. violaceum CVO26 (CECT 5999) was used to screen the ability of the products to interfere with violacein production, a QS-regulated phenotype. C. violaceum CVO26 is a mini-Tn5 mutant that depends on an exogenous source of autoinducer (AI) (N-hexanoyl homoserine lactone, HHL) for violacein production. C. violaceum CVO26 was cultured in LB broth (Sigma-Aldrich) supplemented with 25 μg ml^-1 kanamycin. Inocula were prepared by dilution (1:100) of an overnight culture of the reporter strain [49]. One hundred microliters of inoculum with HHL (Sigma-Aldrich, 6 μM) or without the AI were added to 96-well plates containing 100 μl of the appropriate dilutions of the test products in LB. Thus, two sets of plates were prepared. One set of plates (without HHL) was used to evaluate the effect of the products on bacterial growth, whereas the other set of plates (with HHL) was used to evaluate their effect on violacein production. Both sets of plates were incubated at 30 °C with agitation (150 rpm) for 18 h.
Growth inhibition was quantified in the first batch of plates by re-suspending bacterial pellets and measuring the OD625. From the second batch of plates violacein was extracted and quantified. Briefly, the plates were dried overnight (60 °C) and violacein was re-solubilized by the addition of 200 μl of DMSO. The plates were shaken for 3 h and then the OD590 was determined.
Indeed, the inhibitions observed in violacein production for long alkyl chains (10–18, 20) were clearly correlated to the biocidal effect exerted by these compounds, with ‘therapeutic ratios’ (IC50 for growth inhibition/IC50 for violacein inhibition) around 1, in general (Table 2). Note that, as the length of the hydrocarbon chain becomes shorter, this ratio increased (8–9). […] To evaluate these compounds in further detail, […] stock solutions were prepared […] to avoid the use of high concentrations of DMSO in the bioassays. […] Serial two-fold dilutions (500–3.9 μM) were assayed. Consequently, the highest amount of DMSO used in the assay was 0.25% (v/v). […] Growth inhibitory effects are only observed at 500 μM, particularly for compound 7 (Fig 6D).

Setting [10] is: growth inhibition, 5 days, 26 °C.

Each structure is given as a SMILES string. Where two headings read alike, the source gives them in different places.

In the case of `CCCCCCCCCCCC[P+](c1ccccc1)(c1ccccc1)c1ccccc1` [Compound 12], the IC50 in experiment [1] stood at 1.2 µM; in experiment [2], 7.5 µM; in experiment [3], 4.8 µM; in [4] it was 1 µM; in [5] it was 1.3 µM; in experiment [6], 2.2 µM. Further, the IC50 in experiment [7] was determined as 1.2 µM; in experiment [9], 10.3 µM. Besides, the “MIC G. oxysperma (lowest concentration inhibiting spore germination)” value in [8] was determined as 50 µM.

As for `CCCCCCCCCCCCC[P+](c1ccccc1)(c1ccccc1)c1ccccc1` [Compound 13], the IC50 came out at 1.6 µM in experiment [1] (setting [10]); 4.8 µM in experiment [2] (setting [10]); 4.5 µM in experiment [3] (growth, 5 days, chlorophyll-a); 1.7 µM in experiment [4] (growth, 5 days, chlorophyll-a); 1.8 µM in [5] (growth, 5 days, chlorophyll-a); 2.2 µM in experiment [6] (growth, 5 days, chlorophyll-a). For the same compound, the IC50 in experiment [7] (growth, 5 days, chlorophyll-a) worked out at 1 µM; in experiment [9], 3.2 µM. Also, the “MIC G. oxysperma (lowest concentration inhibiting spore germination)” value in experiment [8] is 50 µM.

As to `CCCCCCCCCCCCCC[P+](c1ccccc1)(c1ccccc1)c1ccccc1` [Compound 14], the IC50 in [1] (setting [10]) is 0.7 µM; in experiment [2] (setting [10]), 5.3 µM; in experiment [3] (growth, 5 days, chlorophyll-a), 2.1 µM; in experiment [4] (growth, 5 days, chlorophyll-a), 4.5 µM; in experiment [5] (growth, 5 days, chlorophyll-a), 1.2 µM; in [6] (growth, 5 days, chlorophyll-a), 3.5 µM. Also, the IC50 in experiment [7] (growth, 5 days, chlorophyll-a) was found to be 1.5 µM; in experiment [9], 2.3 µM. Also, the “MIC G. oxysperma (lowest concentration inhibiting spore germination)” value in [8] was determined as 50 µM.

For `CCCCCCCCCCCCCCC[P+](c1ccccc1)(c1ccccc1)c1ccccc1` [Compound 15], the half-inhibitory concentration (IC50) in [1] (setting [10]) turned out to be 2.9 µM; in [2] (setting [10]), 5.2 µM; in [3] (growth, 5 days, chlorophyll-a), 3.1 µM; in [4] (growth, 5 days, chlorophyll-a) it was 2.2 µM; in experiment [5] (growth, 5 days, chlorophyll-a), 2.8 µM; in experiment [6] (growth, 5 days, chlorophyll-a) it was 3.6 µM. Further, the IC50 in experiment [7] (growth, 5 days, chlorophyll-a) was 1.1 µM; in experiment [9], 2.6 µM. Further, the “MIC G. oxysperma (lowest concentration inhibiting spore germination)” value in [8] was found to be 50 µM.

For `CCCCCCCCCCCCCCCC[P+](c1ccccc1)(c1ccccc1)c1ccccc1` [Compound 16], the IC50 in experiment [1] (setting [10]) came out at 1.4 µM; in experiment [2] (setting [10]), 5.2 µM; in experiment [3] (growth, 5 days, chlorophyll-a), 2.6 µM; in experiment [4] (growth, 5 days, chlorophyll-a) it was 4.7 µM; in [5] (growth, 5 days, chlorophyll-a) it was 1.3 µM; in experiment [6] (growth, 5 days, chlorophyll-a) it was 4.9 µM. Also, the 50% inhibitory concentration (IC50) stood at 1.3 µM in [7] (growth, 5 days, chlorophyll-a) and 3.2 µM in [9]. Further, the “MIC G. oxysperma (lowest concentration inhibiting spore germination)” value in [8] was 50 µM.

Turning to `CCCCCCCCCCCCCCCCCC[P+](c1ccccc1)(c1ccccc1)c1ccccc1` [Compound 17], the IC50 in experiment [1] (setting [10]) stood at 1.3 µM; in [2] (setting [10]), 10.2 µM; in experiment [3] (growth, 5 days, chlorophyll-a), 4.2 µM; in experiment [4] (growth, 5 days, chlorophyll-a) it was 8 µM; in experiment [5] (growth, 5 days, chlorophyll-a), 1.2 µM; in experiment [6] (growth, 5 days, chlorophyll-a), 7.6 µM. In addition, the IC50 came to 7.4 µM in experiment [7] (growth, 5 days, chlorophyll-a) and 7 µM in experiment [9]. In experiment [8], the “MIC G. oxysperma (lowest concentration inhibiting spore germination)” value was over 100 µM.

`CCCCCCCCCCCCCCCCCCC[P+](c1ccccc1)(c1ccccc1)c1ccccc1` [Compound 18]: the IC50 in [1] (setting [10]) turned out to be 5.3 µM; in [2] (setting [10]), 19.6 µM; in experiment [3] (growth, 5 days, chlorophyll-a), 3.4 µM; in experiment [4] (growth, 5 days, chlorophyll-a), 6.9 µM; in experiment [5] (growth, 5 days, chlorophyll-a) it was 0.8 µM; in experiment [6] (growth, 5 days, chlorophyll-a), 4.8 µM. Moreover, the IC50 in [7] (growth, 5 days, chlorophyll-a) came to 16.9 µM; in experiment [9], 40.1 µM. Also, the “MIC G. oxysperma (lowest concentration inhibiting spore germination)” value in experiment [8] was over 100 µM.

For `O=C(O)CCCCCCCCCC[P+](c1ccccc1)(c1ccccc1)c1ccccc1` [Compound 19], the IC50 in experiment [1] (setting [10]) is over 100 µM; in experiment [2] (setting [10]), over 100 µM; in experiment [3] (growth, 5 days, chlorophyll-a) it was 75.5 µM; in [4] (growth, 5 days, chlorophyll-a) it was 24.1 µM; in experiment [5] (growth, 5 days, chlorophyll-a) it was over 100 µM; in experiment [6] (growth, 5 days, chlorophyll-a), over 100 µM. Also, the IC50 was over 100 µM in experiment [7] (growth, 5 days, chlorophyll-a) and over 100 µM in experiment [9]. The “MIC G. oxysperma (lowest concentration inhibiting spore germination)” value in [8] was over 100 µM.

On to `c1ccc([P+](CCCCCCCCCCCC[P+](c2ccccc2)(c2ccccc2)c2ccccc2)(c2ccccc2)c2ccccc2)cc1` [Compound 20], for which the IC50 amounted to 0.3 µM in experiment [1] (setting [10]); 0.6 µM in experiment [2] (setting [10]); 1.6 µM in experiment [3] (growth, 5 days, chlorophyll-a); 1.3 µM in experiment [4] (growth, 5 days, chlorophyll-a); 0.6 µM in experiment [5] (growth, 5 days, chlorophyll-a); 2 µM in [6] (growth, 5 days, chlorophyll-a). In addition, the IC50 in experiment [7] (growth, 5 days, chlorophyll-a) amounted to 1 µM; in experiment [9], 12.8 µM. Also, in experiment [8], the “MIC G. oxysperma (lowest concentration inhibiting spore germination)” value amounted to 5 µM.
